Experimental data as given in ChEMBL document CHEMBL1649099, “Identification of potent and selective glucosylceramide synthase inhibitors from a library of N-alkylated iminosugars” (ACS Med Chem Lett, 2011).

Experiments:
Sucrase-isomaltase = Sucrase-isomaltase (Mus musculus, UniProt B5THE3); experiment: Inhibition of sucrase in mouse intestinal […] by glucose release assay
[1] = biological target: T1, Lysosomal acid glucosylceramidase (Homo sapiens, UniProt P04062); experiment: Inhibition of recombinant GBA1 preincubated with compound for 30 mins using 4-methylumbelliferyl-B-glucoside substrate by fluorimetric assay
T1 sequence (P04062 whole entry): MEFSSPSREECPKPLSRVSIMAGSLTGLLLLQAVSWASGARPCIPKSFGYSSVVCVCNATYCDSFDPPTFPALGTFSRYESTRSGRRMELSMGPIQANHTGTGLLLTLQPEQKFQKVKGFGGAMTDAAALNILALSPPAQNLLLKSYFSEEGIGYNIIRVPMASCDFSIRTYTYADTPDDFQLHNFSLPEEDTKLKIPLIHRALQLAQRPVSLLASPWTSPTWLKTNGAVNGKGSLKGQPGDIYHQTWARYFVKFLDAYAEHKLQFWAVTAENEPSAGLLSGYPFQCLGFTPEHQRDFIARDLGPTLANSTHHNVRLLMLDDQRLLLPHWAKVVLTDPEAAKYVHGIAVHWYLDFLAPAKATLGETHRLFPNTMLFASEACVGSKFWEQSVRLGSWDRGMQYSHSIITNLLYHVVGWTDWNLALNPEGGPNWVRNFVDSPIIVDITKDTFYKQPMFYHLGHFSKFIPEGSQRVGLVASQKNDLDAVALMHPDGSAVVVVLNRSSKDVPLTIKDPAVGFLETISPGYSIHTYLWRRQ

Beta-glucosidase = biological target: T2, Beta-glucosidase (Homo sapiens, UniProt Q9HCG7); experiment: Inhibition of recombinant GBA2 preincubated with compound for 30 mins using 4-methylumbelliferyl-B-glucoside substrate by fluorimetric assay
T2 sequence (Q9HCG7 whole entry): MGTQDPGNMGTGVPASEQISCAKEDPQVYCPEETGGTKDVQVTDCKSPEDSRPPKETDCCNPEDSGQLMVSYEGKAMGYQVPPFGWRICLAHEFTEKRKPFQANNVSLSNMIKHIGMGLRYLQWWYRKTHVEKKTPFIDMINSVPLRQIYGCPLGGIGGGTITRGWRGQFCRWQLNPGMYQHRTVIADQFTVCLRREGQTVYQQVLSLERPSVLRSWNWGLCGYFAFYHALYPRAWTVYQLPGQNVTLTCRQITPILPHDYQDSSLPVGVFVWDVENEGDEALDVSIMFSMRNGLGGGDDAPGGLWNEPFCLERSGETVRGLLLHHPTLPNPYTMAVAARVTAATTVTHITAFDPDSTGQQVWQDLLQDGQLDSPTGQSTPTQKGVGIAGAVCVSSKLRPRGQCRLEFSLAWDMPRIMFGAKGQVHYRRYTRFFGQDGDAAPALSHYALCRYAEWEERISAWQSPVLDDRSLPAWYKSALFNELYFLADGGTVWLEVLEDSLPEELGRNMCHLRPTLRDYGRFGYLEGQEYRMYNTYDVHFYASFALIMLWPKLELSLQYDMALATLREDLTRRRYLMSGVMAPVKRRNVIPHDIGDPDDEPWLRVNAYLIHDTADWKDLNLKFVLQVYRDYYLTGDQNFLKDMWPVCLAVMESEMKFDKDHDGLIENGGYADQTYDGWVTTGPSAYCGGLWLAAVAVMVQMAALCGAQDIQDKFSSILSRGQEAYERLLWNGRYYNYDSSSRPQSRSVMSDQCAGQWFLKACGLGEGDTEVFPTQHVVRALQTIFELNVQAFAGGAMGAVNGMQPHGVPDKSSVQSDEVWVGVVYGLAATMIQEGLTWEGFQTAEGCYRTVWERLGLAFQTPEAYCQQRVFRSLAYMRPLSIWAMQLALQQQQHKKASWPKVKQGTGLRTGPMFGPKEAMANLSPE

[2] = biological target: T3, Ceramide glucosyltransferase (Mus musculus, UniProt O88693); experiment: Inhibition of glucosylceramide synthase in mouse RAW cells preincubated with compound for 15 mins by in-situ enzyme inhibition assay; assay type: cell-based
T3 sequence (O88693 whole entry): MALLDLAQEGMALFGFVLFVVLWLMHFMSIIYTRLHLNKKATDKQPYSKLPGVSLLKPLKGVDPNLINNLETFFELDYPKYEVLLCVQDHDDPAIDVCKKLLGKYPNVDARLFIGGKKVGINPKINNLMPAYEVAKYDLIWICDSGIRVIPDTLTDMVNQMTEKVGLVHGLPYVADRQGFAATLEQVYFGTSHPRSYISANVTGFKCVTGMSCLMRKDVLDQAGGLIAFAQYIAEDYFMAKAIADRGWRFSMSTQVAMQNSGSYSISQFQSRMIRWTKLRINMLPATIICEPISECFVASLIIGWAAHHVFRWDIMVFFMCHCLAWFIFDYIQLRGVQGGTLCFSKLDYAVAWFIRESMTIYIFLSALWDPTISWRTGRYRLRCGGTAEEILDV

Sequence of Sucrase-isomaltase (B5THE3 whole entry): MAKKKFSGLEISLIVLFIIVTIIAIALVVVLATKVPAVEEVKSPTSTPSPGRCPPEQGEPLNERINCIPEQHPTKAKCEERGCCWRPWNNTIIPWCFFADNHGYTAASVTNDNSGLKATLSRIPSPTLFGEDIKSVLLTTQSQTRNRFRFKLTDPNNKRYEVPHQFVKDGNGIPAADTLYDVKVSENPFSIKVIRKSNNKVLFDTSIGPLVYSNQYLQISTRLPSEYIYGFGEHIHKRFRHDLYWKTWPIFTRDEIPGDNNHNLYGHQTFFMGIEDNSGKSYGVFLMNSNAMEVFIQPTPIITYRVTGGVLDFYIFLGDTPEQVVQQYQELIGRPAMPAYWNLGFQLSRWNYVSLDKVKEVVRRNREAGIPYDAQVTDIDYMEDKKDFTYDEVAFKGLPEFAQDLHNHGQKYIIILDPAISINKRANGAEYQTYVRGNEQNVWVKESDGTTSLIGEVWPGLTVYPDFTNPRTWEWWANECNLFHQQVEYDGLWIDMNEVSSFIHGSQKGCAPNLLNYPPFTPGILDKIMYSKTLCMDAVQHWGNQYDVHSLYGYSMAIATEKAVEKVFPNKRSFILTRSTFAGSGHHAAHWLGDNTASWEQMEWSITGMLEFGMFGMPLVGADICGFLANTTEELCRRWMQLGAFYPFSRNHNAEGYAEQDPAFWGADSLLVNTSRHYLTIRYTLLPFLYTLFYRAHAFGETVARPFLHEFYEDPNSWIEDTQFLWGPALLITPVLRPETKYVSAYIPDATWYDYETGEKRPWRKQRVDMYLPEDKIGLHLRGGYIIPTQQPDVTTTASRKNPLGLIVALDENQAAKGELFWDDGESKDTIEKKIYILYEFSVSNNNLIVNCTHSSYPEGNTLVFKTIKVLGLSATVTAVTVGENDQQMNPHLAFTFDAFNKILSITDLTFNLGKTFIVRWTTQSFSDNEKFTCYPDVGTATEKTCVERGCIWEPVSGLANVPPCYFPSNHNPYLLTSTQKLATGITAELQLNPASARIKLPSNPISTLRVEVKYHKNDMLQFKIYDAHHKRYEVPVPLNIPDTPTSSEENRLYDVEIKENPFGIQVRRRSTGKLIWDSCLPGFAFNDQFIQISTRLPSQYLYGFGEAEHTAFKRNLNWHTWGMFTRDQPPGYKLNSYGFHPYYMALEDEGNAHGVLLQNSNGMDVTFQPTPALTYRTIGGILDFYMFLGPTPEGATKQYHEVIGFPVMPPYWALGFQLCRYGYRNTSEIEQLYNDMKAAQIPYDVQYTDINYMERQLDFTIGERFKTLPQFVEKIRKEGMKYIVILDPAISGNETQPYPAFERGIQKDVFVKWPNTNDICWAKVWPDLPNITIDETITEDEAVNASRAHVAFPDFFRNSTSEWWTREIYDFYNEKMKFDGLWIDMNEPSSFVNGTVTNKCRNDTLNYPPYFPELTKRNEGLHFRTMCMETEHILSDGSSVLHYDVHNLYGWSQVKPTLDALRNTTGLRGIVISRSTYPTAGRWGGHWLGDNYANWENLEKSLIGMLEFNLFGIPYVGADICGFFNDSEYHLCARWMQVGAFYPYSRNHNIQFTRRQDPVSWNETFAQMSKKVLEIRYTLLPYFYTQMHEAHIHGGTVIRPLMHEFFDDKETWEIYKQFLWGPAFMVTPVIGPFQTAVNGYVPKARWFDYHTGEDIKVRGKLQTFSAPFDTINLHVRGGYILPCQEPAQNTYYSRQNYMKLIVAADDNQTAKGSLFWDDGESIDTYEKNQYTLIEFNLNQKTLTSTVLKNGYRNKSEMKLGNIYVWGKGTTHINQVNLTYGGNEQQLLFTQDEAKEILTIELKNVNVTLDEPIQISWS

Structure (SMILES)	IC50 (Sucrase-isomaltase)	IC50 [1]	IC50 (Beta-glucosidase)	IC50 [2]
CCCCCN1C[C@H](O)[C@@H](O)[C@H](O)[C@H]1CO	2 µM	500 µM	400 nM	> 20000 nM
CCCCCCN1C[C@H](O)[C@@H](O)[C@H](O)[C@H]1CO	1 µM	80 µM	110 nM	> 20000 nM
CCCCCCCN1C[C@H](O)[C@@H](O)[C@H](O)[C@H]1CO	–	18.5 µM	45 nM	40000 nM
CCCCCCCCN1C[C@H](O)[C@@H](O)[C@H](O)[C@H]1CO	0.75 µM	4 µM	20 nM	4000 nM
CCCCCN1C[C@H](O)[C@@H](O)[C@H](O)[C@@H]1CO	> 1000 µM	> 1000 µM	250 nM	15000 nM
CCCCCCN1C[C@H](O)[C@@H](O)[C@H](O)[C@@H]1CO	600 µM	> 1000 µM	140 nM	40000 nM
CCCCCCCN1C[C@H](O)[C@@H](O)[C@H](O)[C@@H]1CO	–	700 µM	40 nM	4000 nM
CCCCCCCCN1C[C@H](O)[C@@H](O)[C@H](O)[C@@H]1CO	60 µM	25 µM	20 nM	4000 nM
CCCCCCCCCN1C[C@H](O)[C@@H](O)[C@H](O)[C@@H]1CO	> 1000 µM	–	–	–
CCCCOCCCCCN1C[C@H](O)[C@@H](O)[C@H](O)[C@H]1CO	2 µM	30 µM	60 nM	4000 nM
CCCCCOCCCCCN1C[C@H](O)[C@@H](O)[C@H](O)[C@H]1CO	–	705 µM	40 nM	2000 nM
CCCCCCCCCOCCCCCN1C[C@H](O)[C@@H](O)[C@H](O)[C@H]1CO	–	–	–	100 nM
CCCCOCCCCCN1C[C@H](O)[C@@H](O)[C@H](O)[C@@H]1CO	> 1000 µM	> 1000 µM	90 nM	2000 nM
CCCCCOCCCCCN1C[C@H](O)[C@@H](O)[C@H](O)[C@@H]1CO	–	100 µM	15 nM	150 nM
CCCCCCCCCN1C[C@H](O)[C@@H](O)[C@H](O)[C@H]1CO	0.4 µM	–	–	–

Further lines, results first:

IC50 (Sucrase-isomaltase)	IC50 [1]	IC50 (Beta-glucosidase)	IC50 [2]	Structure (SMILES)
–	–	8 nM	1000 nM	CCCCCCOCCCCCN1C[C@H](O)[C@@H](O)[C@H](O)[C@H]1CO
1 µM	1.75 µM	15 nM	300 nM	CCCCCCCOCCCCCN1C[C@H](O)[C@@H](O)[C@H](O)[C@H]1CO
1 µM	0.5 µM	10 nM	200 nM	CCCCCCCCOCCCCCN1C[C@H](O)[C@@H](O)[C@H](O)[C@H]1CO
–	–	25 nM	100 nM	CCCCCCOCCCCCN1C[C@H](O)[C@@H](O)[C@H](O)[C@@H]1CO
> 1000 µM	40 µM	15 nM	50 nM	CCCCCCCOCCCCCN1C[C@H](O)[C@@H](O)[C@H](O)[C@@H]1CO
> 1000 µM	15 µM	15 nM	50 nM	CCCCCCCCOCCCCCN1C[C@H](O)[C@@H](O)[C@H](O)[C@@H]1CO
–	–	–	< 50 nM	CCCCCCCCCOCCCCCN1C[C@H](O)[C@@H](O)[C@H](O)[C@@H]1CO
